In brackets after ≈: the same amount, converted by molar mass. Where two headings read alike, the source gives them in different places. Marks after values point to notes of the source that are not given here.
What was measured:
[1] = tested on: Bovine capillary endothelial cells; test: Boyden chamber assay, capillary endothelial cell migration; format: cell-based; conditions: endothelial mitogen 200 »g/ml, 4 hours
Procedure: The Boyden chamber assay was carried out using a modification of the method of Falk et al., J. Immunol. Meth., 33:239-247 (1980) as follows: Bovine capillary endothelial cells were plated at 1.5 x 10⁴ cells per well in serum-free DMEM (Dulbecco's Modified Eagle's Medium) on one side of nucleopore filters pre-coated with fibronectin (7.3 »g fibronectin/ml PBS). […] Cells were exposed to endothelial mitogen (Biomedical Technologies, Massachusetts) at 200 »g/ml and different concentrations of the AGM-1470 in serum-free DMEM for 4 hours at 37°C. At the end of this incubation, the number of cells that migrated through 8» pores in the filters was determined by counting cells with an ocular grid at 100 X in quadruplicate.

[2] = tested on: Chick Chorioallantoic Membranes; test: shell-less chorioallantoic membrane (CAM) assay; format: in vivo; conditions: after 48 - 72 hours
Procedure: The shell-less chorioallantoic membrane (CAM) assay was carried out by the method of Folkman et al. (R.Crum. S.Szabo and J.Folkman; Science. 230. 1375 (1985)) as follows: three-day chick embryos were removed from their shells to petri dishes (Falcon 1005) under sterile hood and cultured for further 3 days.
AGM-1470 was dissolved to a 0.45% methylcellulose aqueous solution and aliquots of 10 »l were pipetted onto Teflon rods. After the solution had dried, the methylcellulose disks (about 2 mm in diameter) containing the compound were implanted on the CAM of 6-day embryos.
An avascular zone represents a region in which regression of pre-existing vessels has occured.
Percent of avascular zones was calculated by counting the disks forming avascular zones per the total disks tested. In each group there were 12 to 16 embryos.

B16 Mouse Melanoma = format: in vivo
Procedure: Using the B16 Mouse Melanoma model described in Folkman et al., Science, 221:719-725 (1983), the angiogenesis inhibitory activity of AGM-1470 was further evaluated. Treatment (Rx) usually started when tumors were approximately 70-100 mm³, approximately 9 to 10 days after inoculation. Tumors were matched for size before inclusion in treated and untreated groups. AGM-1470 was dissolved in isotonic solution by incubating with glass beads and vigorously shaking overnight at 4°C. This preparation was administered subcutaneously at 30 mg/kg every other day.
Tumor growth is presented as a T/C ratio, as defined below. In essence, a ratio equal to "+ 1" means no inhibition, a ratio equal to "0" means complete suppression of growth, and a negative ratio indicates tumor regression. [formula]

[3] = tested on: mouse reticulum cell sarcoma (M 5076); test: Suppression of tumor formation in vivo (M 5076); design: species or system C57BL/6N mice; conditions: 30 mg/day subcutaneously, 10 injections over 12 days; tumor volume one day after the final injection
Source text: The tumor used in this assay was mouse reticulum cell sarcoma (M 5076), maintained by intraperitoneal transplantation into male C57BL/6N mice. The tumor cells in ascites were collected by centrifugation, and suspended in saline. The cell suspension (2 x 10⁶ cells/100 »l/mouse) was inoculated into right flanks of mice. Tumor-bearing mice were subcutaneously treated with the compound (I) (shown by Example Numbers) suspended in 5% arabic gum solution containing 1% of ethanol, for 12 days beginning one day after tumor inoculation (10 injections). The tumor growth was determined by measuring tumor size in two directions with calipers at intervals of a few days. The tumor volumes were calculated by the following formula. Tumor volume (mm³) = length x (width)² […]. [formula]

[4] = tested on: bFGF-induced angiogenesis; test: rat cornea micropocket method (angiogenesis inhibitory activity); format: in vivo, Sprague-Dawley rats; conditions: rats with angiogenesis inhibitory activity / rats tested, sample pellet 20 »g
Procedure: The product compound (I) obtained in the examples given below were evaluated for angiogenesis inhibitory activity by the rat cornea micropocket method.
Essentially the method of Gimbrone et al. [J. National Cancer Institute, 52, 413-419 (1974)] was followed. Thus, adult male Sprague-Dawley rats (11 to 16 weeks of age) were anesthetized with nembutal and locally anesthetized by instillation of xylocaine eyedrops onto the eyeball. The cornea was incised to a length of about 2 mm at about 2mm inside from the corneal circumference by means of an injection needle, and a sustained release pellet containing basic fibroblast growth factor (bFGF; bovine brain-derived, purified product; R & D) and a sustained release pellet containing the test sample were inserted side by side into the incision so that the bFGF pellet was located on the central side in the cornea. In the control group, the bFGF pellet and a sample-free pellet were inserted into the cornea. After 7 days and after 10 days, the cornea was observed under a stereoscopic microscope.
The sustained release pellets were prepared in the following manner. An ethylene-vinyl acetate copolymer (Takeda Chemical Industries) was dissolved in dichloromethane to a concentration of 8%. A 3-»l portion of the solution was air-dried on a glass dish, an aqueous solution of bFGF (250 ng) was then placed thereon and air-dried and, finally 3 »l of the above ethylene-vinyl acetate copolymer solution was placed further thereon and air-dried to give a laminate consisting of two copolymer layers and a bFGF layer sandwiched therebetween. This sandwich sheet was made round into a bFGF pellet. The test sample pellets were prepared by dissolving each sample in ethanol in a concentration of 20 »g/2 »l, mixing the solution (2 »l) with 6 »l of an ethylene-vinyl acetate copolymer solution, air-drying the mixed solution on a glass dish and making the thus-obtained sheet round.

[5] = tested on: Human umbilical vein endothelial cells (HUVE); test: Inhibition of human endothelial cell growth (MTT); format: cell-based; conditions: rbFGF 2 ng/ml, 5 day culture; for IC50: Homo sapiens, Endothelial cell, 120 h, read-out: (IC₅₀)
Procedure: Human umbilical vein endothelial cells (HUVE) were isolated by perfusion of an umbilical vein with a trypsin-containing medium. HUVE were cultured in GIT medium (Diago Eiyou Kagaku, Co., Japan) supplemented with 2.5% fetal bovine serum and 2.0 ng/ml of recombinant human basic fibroblast growth factor (rbFGF, Biotechnology Research Laboratories, Takeda, Osaka, Japan) at 37°C under 5% CO₂ and 7% O₂. HUVE were plated on 96-well microtiter plates (Nunc, 1-67008) at the cell density of 2 x 10³/100 »l of medium. The following day, 100 »l of medium containing rbFGF (2 ng/ml at the final concentration) and each compound (I) (shown by Example Numbers) at various concentrations were added to each well. […] After 5 day culture, medium was removed, 100 »l of 1 mg/ml of MTT (3-(4,5-dimethyl-2-thiazolyl)- 2,5-diphenyl-2H-tetrazolium bromide) solution was added to wells, and microtiters were kept at 37°C for 4 hours. Then, 100 »l of 10% sodium dodecyl sulfate (SDS) solution was added to wells, microtiters were kept at 37° for 5-6 hours. To determine the effects on cell number, the optical density ([…]) of each well was measured using an optical densitometer. […]

With `CO[C@@H]1[C@H](OC(=O)NC(=O)CCl)CC[C@]2(CO2)[C@H]1[C@@]1(C)O[C@@H]1CC=C(C)C` [Example 8, O-Chloroacetylcarbamoylfumagillol] the IC50 ([1]; Bos taurus, Endothelial cell, read-out: Half maximal inhibition of endothelial mitogen-induced migration) was roughly 0.1 ng/mL (≈ 0.249 nM), the “inhibition of cell migration” value ([1]; dose of 100 »g/ml) was “completely inhibited” and the “Significant inhibition of migration, doses as low as” value [1] was 10 femptograms/ml. The “percent of avascular zones” value ([2]; dose 1 »g/10 »l methylcellulose) was 33, the “percent of avascular zones” value ([2]; dose 10 »g/10 »l methylcellulose) was 62 and the “percent of avascular zones” value ([2]; dose 25 »g/10 »l methylcellulose) was 100. For the same compound, the “treated remained alive past day 55” value (B16 Mouse Melanoma; 30 mg/kg subcutaneously every other day) was “Day 37 100% untreated dead 50% AGM-1470 treated dead (50% of treated remained alive past day 55)”, the AGM-1470 treated dead (B16 Mouse Melanoma; Day 37 (100% untreated dead), 30 mg/kg subcutaneously every other day) was “Day 37 100% untreated dead 50% AGM-1470 treated dead (50% of treated remained alive past day 55)” and the toxicity (B16 Mouse Melanoma; mouse, in vivo) was “little or no toxicity”. For the same compound, the T/C (B16 Mouse Melanoma; time of Rx 2 wk, 30 mg/kg subcutaneously every other day) was 0.47, the T/C (B16 Mouse Melanoma; time of Rx 3 wk, 30 mg/kg subcutaneously every other day) was 0.20 and the “T/C (%)” value [3] was 14%. For the same compound, the Inhibition rate ([4]; judged after 7 days) was 6/6* and the IC50 [5] was 0.01 ng/mL (≈ 0.0249 nM).

For `CO[C@@H]1[C@H](OC(=O)NC(=O)CCl)CC[C@]2(CO2)[C@H]1[C@@]1(C)O[C@@H]1CCC(C)C` [Example 51, O-Chloroacetylcarbamoyldihydrofumagillol], the “T/C (%)” value [3] was 22%, the Inhibition rate ([4]; judged after 10 days) was 7/14 and the IC50 [5] was 0.14 ng/mL (≈ 0.347 nM).

With `C=CC(=O)NC(=O)O[C@@H]1CC[C@]2(CO2)[C@@H]([C@@]2(C)O[C@@H]2CC=C(C)C)[C@@H]1OC` [Example 58, O-Acryloylcarbamoylfumagillol] the Inhibition rate ([4]; judged after 10 days) was 6/6.

In the case of `CO[C@@H]1[C@H](OC(=O)NC(=O)CSc2nc3ccccc3o2)CC[C@]2(CO2)[C@H]1[C@@]1(C)O[C@@H]1CC=C(C)C` [Example 60, O-[(2-Benzoxazolyl)thioacetylcarbamoyl]fumagillol], the Inhibition rate ([4]; judged after 10 days) is reported as 4/6.

For `CO[C@@H]1[C@H](OC(=O)NC(=O)CSc2nc3ccccc3[nH]2)CC[C@]2(CO2)[C@H]1[C@@]1(C)O[C@@H]1CC=C(C)C` [Example 61, O-[(2-Benzoimidazolyl)thioacetylcarbamoyl]fumagillol], the Inhibition rate ([4]; judged after 10 days) was 7/7.

`CO[C@@H]1[C@H](OC(=O)NC(=O)CSc2cccc3cccnc23)CC[C@]2(CO2)[C@H]1[C@@]1(C)O[C@@H]1CC=C(C)C` [Example 62, O-[(8-Quinolyl)thioacetylcarbamoyl]fumagillol] was tested, and the Inhibition rate ([4]; judged after 10 days) was 7/7.

For `CO[C@@H]1[C@H](OC(=O)NC(=O)CSc2ccccn2)CC[C@]2(CO2)[C@H]1[C@@]1(C)O[C@@H]1CC=C(C)C` [Example 63, O-[(2-Pyridyl)thioacetylcarbamoyl]fumagillol], the Inhibition rate ([4]; judged after 10 days) was 6/6.

`CO[C@@H]1[C@H](OC(=O)NC(=O)CSc2ccncc2)CC[C@]2(CO2)[C@H]1[C@@]1(C)O[C@@H]1CC=C(C)C` [Example 64, O-[(4-Pyridyl)thioacetylcarbamoyl]fumagillol] was tested, and the Inhibition rate ([4]; judged after 10 days) was 5/5.

With `CO[C@@H]1[C@H](OC(=O)NC(=O)CSC)CC[C@]2(CO2)[C@H]1[C@@]1(C)O[C@@H]1CC=C(C)C` [Example 65, O-(Methylthioacetylcarbamoyl)fumagillol] the Inhibition rate ([4]; judged after 10 days) was 8/8.

In the case of `COC1C(OC(=O)NC(=O)CSc2cnn[nH]2)CCC2(CO2)C1C1(C)OC1CC=C(C)C` (stereo not drawn) [Example 67, O-[(1,2,3-Triazol-5-yl)thioacetylcarbamoyl]fumagillol], the Inhibition rate ([4]; judged after 10 days) is reported as 5/5.

For `COC1C(OC(=O)NC(=O)CSc2cc[n+](C)cc2)CCC2(CO2)C1C1(C)OC1CC=C(C)C` (stereo not drawn) [Example 69, O-[(N-Methylpyridin-4-ylium)thioacetylcarbamoyl]fumagillol iodide], the Inhibition rate ([4]; judged after 10 days) was 6/6.

In the case of `CCOC(=O)NC(=O)OC1CCC2(CO2)C(C2(C)OC2CC=C(C)C)C1OC` (stereo not drawn) [Example 70, O-[N-(Ethoxycarbonyl)carbamoyl]fumagillol], the Inhibition rate ([4]; judged after 10 days) is reported as 5/5.

`COC1C(OC(=O)NC(=O)NC(=O)c2ccccc2)CCC2(CO2)C1C1(C)OC1CC=C(C)C` (stereo not drawn) [Example 75, O-(N'-Benzoylallophanoyl)fumagillol] was tested, and the Inhibition rate ([4]; judged after 10 days) was 8/8.

With “O-Chloroacetylcarbamoyl-6'b-hydroxyfumagillol [Example 76]” the “T/C (%)” value [3] was 29% and the “(IC₅₀)” value [5] was 0.12 ng/mL.

— patent EP0357061B1, “Angiogenesis inhibitory agent” (priority 1988, dated 1990)
